Molecular target: PolQ ATPase enzyme (1-894) (Homo sapiens (Human), UniProt O75417)
Test: Polθ ATPase enzymatic assay (0.5 nM enzyme concentration), ADP-Glo
Format: biochemical
Conditions: average IC50; 0.5 nM PolQ ATPase enzyme (1-894)
Summary of the method: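 Enzyme (0.5 nM) pre-incubated 15 min at rt with 10-point inhibitor series in 50 mM Tris pH 7.5, 10% glycerol, 5 mM DTT, 10 mM MgCl2, 0.1 mg/ml BSA; reaction started with 20 nM fork DNA and 100 μM ATP, run 180 min at rt. ADP-Glo luminescence; IC50 from 4-parameter variable-slope fit.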

Sequence of PolQ ATPase enzyme (1-894) (O75417 1-894): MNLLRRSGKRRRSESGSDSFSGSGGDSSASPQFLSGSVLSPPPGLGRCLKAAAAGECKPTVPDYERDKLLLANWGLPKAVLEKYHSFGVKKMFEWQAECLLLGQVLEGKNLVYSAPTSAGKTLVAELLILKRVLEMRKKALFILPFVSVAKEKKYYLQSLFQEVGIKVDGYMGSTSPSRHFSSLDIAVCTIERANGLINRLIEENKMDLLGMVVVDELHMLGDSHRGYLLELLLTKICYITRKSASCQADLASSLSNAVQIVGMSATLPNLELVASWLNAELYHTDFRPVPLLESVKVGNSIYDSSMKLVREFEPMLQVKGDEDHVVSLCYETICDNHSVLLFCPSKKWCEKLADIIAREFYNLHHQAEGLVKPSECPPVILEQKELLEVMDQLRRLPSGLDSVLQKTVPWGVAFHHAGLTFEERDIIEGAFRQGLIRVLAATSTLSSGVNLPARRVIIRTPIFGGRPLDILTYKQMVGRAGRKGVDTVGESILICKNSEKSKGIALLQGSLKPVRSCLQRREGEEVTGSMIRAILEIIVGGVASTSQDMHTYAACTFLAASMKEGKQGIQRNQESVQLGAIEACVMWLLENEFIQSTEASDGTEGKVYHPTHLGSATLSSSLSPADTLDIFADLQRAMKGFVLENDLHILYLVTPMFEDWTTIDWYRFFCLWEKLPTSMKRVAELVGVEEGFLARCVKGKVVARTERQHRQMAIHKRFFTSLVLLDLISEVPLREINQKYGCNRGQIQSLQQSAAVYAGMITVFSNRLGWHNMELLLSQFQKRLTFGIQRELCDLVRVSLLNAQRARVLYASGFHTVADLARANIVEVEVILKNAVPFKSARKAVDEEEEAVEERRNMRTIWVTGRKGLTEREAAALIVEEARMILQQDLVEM

Row | IC50 | SMILES
1 | 0.28 nM | COc1cnc(C(F)F)cc1-c1cc(C#CC2CCOCC2)ncc1C(=O)Nc1nnc(C#CC2CC2)s1 [Compound 268, N-(5-(cyclopropylethynyl)-1,3,4-thiadiazol-2-yl)-2′-(difluoromethyl)-5′-methoxy-6-((tetrahydro-2H-pyran-4-yl)ethynyl)-[4,4′-bipyridine]-3-carboxamide]
2 | 0.38 nM | C#Cc1cc(-c2cc(C(F)F)ncc2OC)c(C(=O)Nc2nnc(C#CC3CC3)s2)cn1 [Compound 269]
3 | 9.9 nM | COc1cnc(C(F)F)cc1-c1cc(C2CCOCC2)ncc1C(=O)Nc1nnc(C#CC2CC2)s1 [Compound 270]
4 | 0.64 nM | COc1cnc(C(F)F)cc1-c1cc(Oc2cnn(C)c2)ncc1C(=O)Nc1nnc(C#CC2CC2)s1 [Compound 271]
5 | 1.2 nM | COc1cnc(C(F)F)cc1-c1cc(CO)ncc1C(=O)Nc1nnc(C#CC2CC2)s1 [Compound 272]
6 | 1.8 nM | COc1cnc(Cl)cc1-c1cnccc1C(=O)Nc1nnc(C2C[C@H]2c2ccc(C#N)cc2O)s1 (some centres unmarked) [Compound 273]
7 | 0.51 nM | COc1cnc(C(F)F)cc1-c1cnccc1C(=O)Nc1nnc([C@@H]2C[C@H]2c2ccc(C#N)cc2)s1 [Compound 274]
8 | 3.1 nM | COc1cnc(C(F)F)cc1-c1cnccc1C(=O)Nc1nnc([C@H]2C[C@@H]2c2ccc(C#N)cc2)s1 [Compound 275]
9 | < 0.25 nM | COc1cnc(C(F)F)cc1-c1cc(N(C)C(C)=O)ccc1C(=O)Nc1nnc(C#CC2CC2)s1 [Compound 276]
10 | 3.2 nM | COc1cnc(Cl)cc1-c1cc(N2CCC(O)C2=O)ccc1C(=O)Nc1nnc(C#CC2CC2)s1 (centres unmarked) [Compound 277]
11 | < 0.25 nM | COc1cnc(C(F)F)cc1-c1cc(C)ncc1C(=O)Nc1nnc(C#CC2CC2)s1 [Compound 278]
12 | 1.5 nM | Cc1cnc(C(F)F)cc1-c1cnccc1C(=O)Nc1nnc(C#CC2CC2)s1 [Compound 279]
13 | 20 nM | COc1ccc(C(F)(F)F)cc1-c1cc(N2CCN(C)C2=O)ncc1C(=O)Nc1nnc(C#CC2CC2)s1 [Compound 281]
14 | 0.26 nM | COc1cnc(C(F)F)cc1-c1cc(C2CCN(C)C2=O)ccc1C(=O)Nc1nnc(C#CC2CC2)s1 (centres unmarked) [Compound 282]
15 | < 0.25 nM | COc1cnc(C(F)F)cc1-c1cc(C#CC2(O)CCOCC2)ccc1C(=O)Nc1nnc(C#CC2CC2)s1 [Compound 283]
16 | 5.6 nM | COc1cnc(C(F)F)cc1-c1cc(C2=CCOCC2)ncc1C(=O)Nc1nnc(C#CC2CC2)s1 [Compound 284]
17 | 4.3 nM | COc1cnc(C(F)F)cc1-c1cc(N2CCCC2=O)ncc1C(=O)Nc1nnc(C#CC2CC2)s1 [Compound 285]
18 | 21 nM | COc1cnc(C(F)F)cc1-c1cc(N(C)C)ncc1C(=O)Nc1nnc(C#CC2CC2)s1 [Compound 286]
19 | 0.93 nM | COc1cnc(Cl)cc1-c1cnccc1C(=O)Nc1nnc([C@@H]2C[C@H]2c2ccc(C#N)c(C)c2)s1 [Compound 287]
20 | < 0.25 nM | COc1cnc(Cl)cc1-c1cc(C#CC2(O)CCS(=O)(=O)CC2)ccc1C(=O)Nc1nnc(C#CC2CC2)s1 [Compound 288]
21 | 0.88 nM | COc1cnc(C(F)F)cc1-c1cc(Cl)ncc1C(=O)Nc1ncc(C#CC2CC2)s1 [Compound 289]
22 | 7.3 nM | COc1ccc(C(F)(F)F)cc1-c1cc(N2CCCC2=O)ncc1C(=O)Nc1nnc(C#CC2CC2)s1 [Compound 290]
23 | 0.35 nM | COc1cnc(C(F)F)cc1-c1cc(Cl)ncc1C(=O)Nc1nnc(C#CC2CC2)s1 [Compound 291]

Row | IC50 | SMILES
24 | < 0.25 nM | COc1ccc(C(F)F)cc1-c1cc(C(=O)N(C)C)ncc1C(=O)Nc1nnc(C#CC2CC2)s1 [Compound 293]
25 | 0.29 nM | COc1cnc(Cl)cc1-c1cc(N(C)C(C)=O)ccc1C(=O)Nc1nnc(C#CC2CC2)s1 [Compound 294]
26 | 2.7 nM | COc1cnc(Cl)cc1-c1cc(N2CCN(C)C2=O)ccc1C(=O)Nc1nnc(C#CC2CC2)s1 [Compound 295]
27 | 1.6 nM | COc1ccc(C(F)(F)F)cc1-c1cc(-c2cnn(C)c2)ncc1C(=O)Nc1nnc(C#CC2CC2)s1 [Compound 296]
28 | 0.69 nM | COc1ccc(C(F)(F)F)cc1-c1cc(C2CCN(C)C2=O)ncc1C(=O)Nc1nnc(C#CC2CC2)s1 (centres unmarked) [Compound 297]
29 | 0.8 nM | COc1cnc(Cl)cc1-c1cc(-c2n[nH]cc2C)ccc1C(=O)Nc1nnc(C#CC2CC2)s1 [Compound 298]
30 | 0.6 nM | Cc1cnc(Cl)cc1-c1cnccc1C(=O)Nc1nnc(C#CC2CC2)s1 [Compound 299]
31 | 0.5 nM | COc1cnc(Cl)cc1-c1cc(-c2cn(C)nn2)ccc1C(=O)Nc1nnc(C#CC2CC2)s1 [Compound 300]
32 | < 0.25 nM | COc1cnc(C(F)F)cc1-c1cc(Oc2nccs2)ccc1C(=O)Nc1nnc(C#CC2CC2)s1 [Compound 301]
33 | 0.35 nM | COc1cnc(Cl)cc1-c1cc(Oc2nccs2)ccc1C(=O)Nc1nnc(C#CC2CC2)s1 [Compound 302]
34 | 1.1 nM | COc1cnc(C(F)F)cc1-c1cnccc1C(=O)Nc1nnc([C@@H]2C[C@H]2c2ccc(C#N)cc2)s1 [Compound 303]
35 | 13 nM | COc1cnc(Cl)cc1-c1cnccc1C(=O)Nc1nnc(C2C[C@H]2c2ccc(C#N)cc2OC)s1 (some centres unmarked) [Compound 304]
36 | 0.56 nM | COc1ccc(C(F)(F)F)cc1-c1cnccc1C(=O)Nc1nnc(C#CC2CC2(C)C)s1 (centres unmarked) [Compound 306]
37 | 4.4 nM | COc1cnc(Cl)cc1-c1cc(CS(C)(=O)=O)ccc1C(=O)Nc1nnc(C#CC2CC2)s1 [Compound 310]
38 | 8.1 nM | COc1cnc(Cl)cc1-c1cc(N2CCCS2(=O)=O)ccc1C(=O)Nc1nnc(C#CC2CC2)s1 [Compound 311]
39 | 0.94 nM | COc1cnc(Cl)cc1-c1cc(-c2cn[nH]c2)ccc1C(=O)Nc1nnc(C#CC2CC2)s1 [Compound 312]
40 | 0.87 nM | COc1cnc(C(F)F)cc1-c1cc(C#N)ncc1C(=O)Nc1nnc(C#CC2CC2)s1 [Compound 313]
41 | 0.49 nM | COc1cnc(Cl)cc1-c1cn2cc(C(=O)N(C)C)nc2cc1C(=O)Nc1nnc(C#CC2CC2)s1 [Compound 314]
42 | 4.5 nM | COc1cnc(C(F)F)cc1-c1cn2cc(C(=O)N(C)C)nc2cc1C(=O)Nc1nnc(C#CC2CC2)s1 [Compound 315]
43 | 1.6 nM | COc1cnc(C(F)F)cc1-c1ccncc1C(=O)Nc1nnc(C#CC2CC2)s1 [Compound 316]
44 | < 0.25 nM | CN(C)C(=O)Cn1cc(-c2cc(C(F)F)ccc2Cl)c(C(=O)Nc2nnc(C#CC3CC3)s2)cc1=O [Compound 317]
45 | 4.8 nM | COc1cnc(Cl)cc1-c1cnccc1C(=O)Nc1nnc(C2C[C@H]2c2ccc(C#N)nc2)s1 (some centres unmarked) [Compound 318]
46 | < 0.25 nM | Cn1cc(-c2cc(Cl)ncc2OC(F)F)c(C(=O)Nc2nnc(C#CC3CC34CC4)s2)cc1=O (centres unmarked) [Compound 320]

Row | IC50 | SMILES
47 | 0.41 nM | COc1ccc(C(F)F)cc1-c1cc(C#N)ncc1C(=O)Nc1nnc(C#CC2CC2)s1 [Compound 321]
48 | 1.9 nM | COc1cnc(C(F)F)cc1-c1cn(C)c(=O)cc1C(=O)Nc1nnc(C2C[C@H]2c2ccc(C#N)cc2)s1 (some centres unmarked) [Compound 322]
49 | 4.5 nM | C#C[C@@H]1CC1c1nnc(NC(=O)c2ccncc2-c2cc(C(F)F)ncc2OC)s1 (some centres unmarked) [Compound 323]
50 | 0.4 nM | COc1ccc(C(F)F)cc1-c1cn2cc(C(=O)N(C)C)nc2cc1C(=O)Nc1nnc(C#CC2CC2)s1 [Compound 324]
51 | < 0.25 nM | COc1cc(N2CCOCC2)c(C(F)(F)F)cc1-c1cnccc1C(=O)Nc1nnc(C#CC2CC2)s1 [Compound 325]
52 | 4.1 nM | COc1cnc(Cl)cc1-c1cncc(F)c1C(=O)Nc1nnc(C#CC2CC2)s1 [Compound 327]
53 | 3.1 nM | COc1ccc(C(F)F)cc1-c1cn2ncnc2cc1C(=O)Nc1nnc(C#CC2CC2)s1 [Compound 328]
54 | 4.1 nM | COc1ccc(C(F)(F)F)nc1-c1cnccc1C(=O)Nc1nnc(C#CC2CC2)s1 [Compound 329]
55 | 24 nM | Cc1nc(Cn2cc(-c3cc(C(F)(F)F)ccc3Cl)c(C(=O)Nc3nnc(C#CC4CC4)s3)cc2=O)cs1 [Compound 331]
56 | 15 nM | COc1cnc(Cl)cc1-c1cn(Cc2csc(C)n2)c(=O)cc1C(=O)Nc1nnc(C#CC2CC2)s1 [Compound 332]
57 | 3.8 nM | COc1cnc(Cl)cc1-c1cn(Cc2nccs2)c(=O)cc1C(=O)Nc1nnc(C#CC2CC2)s1 [Compound 333]
58 | 4.3 nM | COc1cnc(Cl)nc1-c1cn(C)c(=O)cc1C(=O)Nc1nnc(C#CC2CC2)s1 [Compound 335]
59 | 33 nM | COc1ccc(C(F)(F)F)cc1-c1cn(C)c(=O)cc1C(=O)Nc1nnc(C#CC2CCCOC2)s1 (centres unmarked) [Compound 336]
60 | 9.2 nM | COc1ccc(C(F)(F)F)cc1-c1cn(C)c(=O)cc1C(=O)Nc1nnc(C#CC2CCOCC2)s1 [Compound 337]
61 | 4.7 nM | COc1cnc(C(F)(F)F)nc1-c1cnccc1C(=O)Nc1nnc(C#CC2CC2)s1 [Compound 338]
62 | 3.4 nM | COc1ccc(Cl)nc1-c1cnccc1C(=O)Nc1nnc(C#CC2CC2)s1 [Compound 339]
63 | 3.2 nM | COc1cnc(Cl)cc1-c1cn2c(C#N)cnc2cc1C(=O)Nc1nnc(C#CC2CC2)s1 [Compound 341]
64 | 13 nM | COc1cnc(Cl)cc1-c1cn2c(C(N)=O)cnc2cc1C(=O)Nc1nnc(C#CC2CC2)s1 [Compound 342]
65 | 8.4 nM | COc1ccc(C(F)(F)F)cc1-c1cn(C)c(=O)cc1C(=O)Nc1nnc(C#CC2COC2)s1 [Compound 343]
66 | 4.3 nM | COc1ncc(Cl)cc1-c1cnccc1C(=O)Nc1nnc(C#CC2CC2)s1 [Compound 344]
67 | 3.7 nM | COc1ccc(C(F)(F)F)cc1-c1cn2ncnc2cc1C(=O)Nc1nnc(C#CC2CC2)s1 [Compound 345]

Row | SMILES | IC50
68 | COc1cnc(C(F)F)cc1-c1cc(-c2ccn(C)n2)ccc1C(=O)Nc1nnc(C#CC2CC2)s1 [Compound 280] | < 0.25 nM
69 | COc1cnc(Cl)cc1-c1cc(-c2ccn(C)n2)ccc1C(=O)Nc1nnc(C#CC2CC2)s1 [Compound 307] | < 0.25 nM
70 | COc1ccc(C(F)(F)F)cc1-c1cc(-c2ccn(C)n2)ncc1C(=O)Nc1nnc(C#CC2CC2)s1 [Compound 308] | 0.42 nM
71 | COc1ccc(C(F)(F)F)cc1-c1cc(-c2ccn(C)n2)ncc1C(=O)Nc1nnc(C#CC2CC2)s1 [Compound 309] | 0.99 nM
